This note sets out measurements from ChEMBL document CHEMBL3763016, “Design, synthesis and biological evaluation of 3'-benzylated analogs of 3'-epi-neoponkoranol as potent α-glucosidase inhibitors” (Eur J Med Chem, 2016).

The nature of test [1]: Inhibition of rat intestinal maltase using maltose as substrate incubated for 30 mins by glucose-oxidase method.
Test [2] deals with T1, Sucrase-isomaltase, intestinal (Rattus norvegicus, UniProt P23739). Put plainly: Inhibition of rat intestinal sucrase using sucrose as substrate incubated for 30 mins by glucose-oxidase method.
T1 sequence (P23739 1-1013 limits assumed): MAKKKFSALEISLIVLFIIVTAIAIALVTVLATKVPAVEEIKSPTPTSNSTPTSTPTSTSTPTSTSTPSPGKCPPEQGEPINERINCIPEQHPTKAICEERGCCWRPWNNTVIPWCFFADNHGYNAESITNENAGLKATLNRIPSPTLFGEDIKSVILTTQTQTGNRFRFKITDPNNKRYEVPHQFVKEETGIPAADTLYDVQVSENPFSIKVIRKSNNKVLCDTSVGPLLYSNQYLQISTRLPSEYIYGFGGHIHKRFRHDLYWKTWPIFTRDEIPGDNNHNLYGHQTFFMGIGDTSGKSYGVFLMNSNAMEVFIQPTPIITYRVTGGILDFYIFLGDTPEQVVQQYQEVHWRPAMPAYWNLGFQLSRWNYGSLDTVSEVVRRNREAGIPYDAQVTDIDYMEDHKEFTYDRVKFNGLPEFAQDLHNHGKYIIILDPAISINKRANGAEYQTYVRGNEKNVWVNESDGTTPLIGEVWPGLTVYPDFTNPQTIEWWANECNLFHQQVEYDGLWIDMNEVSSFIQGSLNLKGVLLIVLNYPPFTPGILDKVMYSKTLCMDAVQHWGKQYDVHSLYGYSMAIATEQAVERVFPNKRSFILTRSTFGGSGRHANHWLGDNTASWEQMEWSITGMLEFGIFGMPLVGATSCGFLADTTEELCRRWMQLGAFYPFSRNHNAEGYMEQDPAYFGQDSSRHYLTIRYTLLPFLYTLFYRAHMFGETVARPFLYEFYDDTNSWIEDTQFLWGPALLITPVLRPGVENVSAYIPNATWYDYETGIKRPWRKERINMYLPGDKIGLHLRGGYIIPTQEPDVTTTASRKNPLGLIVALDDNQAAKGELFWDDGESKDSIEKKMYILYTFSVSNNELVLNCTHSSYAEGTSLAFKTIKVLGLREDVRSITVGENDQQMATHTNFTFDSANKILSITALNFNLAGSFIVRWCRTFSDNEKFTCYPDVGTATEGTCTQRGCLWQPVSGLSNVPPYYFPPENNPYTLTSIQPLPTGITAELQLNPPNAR
T1 sequence (P23739 1014-1841 limits assumed): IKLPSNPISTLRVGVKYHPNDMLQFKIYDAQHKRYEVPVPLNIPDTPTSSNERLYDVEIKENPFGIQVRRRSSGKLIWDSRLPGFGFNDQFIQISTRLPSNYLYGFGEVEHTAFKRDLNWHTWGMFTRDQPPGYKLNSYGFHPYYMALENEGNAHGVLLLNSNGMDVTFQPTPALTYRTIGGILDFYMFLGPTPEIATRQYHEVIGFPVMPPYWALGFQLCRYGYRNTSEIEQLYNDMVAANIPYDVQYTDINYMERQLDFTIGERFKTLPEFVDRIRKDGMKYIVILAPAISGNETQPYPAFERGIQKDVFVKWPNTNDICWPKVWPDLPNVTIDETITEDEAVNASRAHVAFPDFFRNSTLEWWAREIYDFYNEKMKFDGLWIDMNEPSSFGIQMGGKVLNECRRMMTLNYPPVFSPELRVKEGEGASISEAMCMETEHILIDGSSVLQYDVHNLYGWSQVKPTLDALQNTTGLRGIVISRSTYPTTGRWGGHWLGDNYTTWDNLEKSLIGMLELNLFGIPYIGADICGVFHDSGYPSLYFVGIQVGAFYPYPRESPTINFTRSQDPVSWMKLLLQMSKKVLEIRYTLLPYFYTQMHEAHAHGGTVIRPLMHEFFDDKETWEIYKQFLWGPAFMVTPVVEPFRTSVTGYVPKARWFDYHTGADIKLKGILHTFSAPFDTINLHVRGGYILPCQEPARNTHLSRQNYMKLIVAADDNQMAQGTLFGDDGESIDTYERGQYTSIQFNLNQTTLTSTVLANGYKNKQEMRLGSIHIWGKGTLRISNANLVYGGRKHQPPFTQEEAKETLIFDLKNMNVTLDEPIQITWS
The nature of test [3]: Cytotoxicity against human HELF cells by MTT assay. The format is cell-based. (Formazan colour is commonly taken as a measure of viable cells.)
The nature of test [4]: Competitive inhibition of rat intestinal maltase using maltose as substrate incubated for 30 mins by Lineweaver-Burk plot analysis.
Test [5] deals with T1, Sucrase-isomaltase, intestinal. Put plainly: Competitive inhibition of rat intestinal sucrase using sucrose as substrate incubated for 30 mins by Lineweaver-Burk plot analysis.
Test [6] deals with Sucrase-isomaltase, intestinal (Rattus norvegicus) (UniProt P23739). Put plainly: Potency index, ratio of acarbose IC50 to compound IC50 for rat intestinal sucrase.
Sucrase-isomaltase, intestinal (Rattus norvegicus), sequence (P23739 1-1013 limits assumed): as the sequence (P23739 1-1013 limits assumed) above
Sucrase-isomaltase, intestinal (Rattus norvegicus), sequence (P23739 1014-1841 limits assumed): as the sequence (P23739 1014-1841 limits assumed) above

The IC50 is the concentration needed to halve the response being measured. High values mean weaker potency in that assay, low ones greater potency in that assay. `OC[C@@H]1[C@@H](O)[C@H](O)C[S+]1C[C@@H](O)[C@H](O)[C@H](O)[C@@H](O)CO` (some centres undefined): the IC50 is 2 µM in test [1] and 0.3 µM in test [2].

As for `O=[N+]([O-])c1cccc(CO[C@H]([C@H](O)[C@@H](O)CO)[C@H](O)C[S+]2C[C@@H](O)[C@H](O)[C@H]2CO)c1` (some centres undefined), the IC50 in test [1] is 6.7 µM; in test [2] it was 0.21 µM.

For the molecule `O=[N+]([O-])c1ccc(CO[C@H]([C@H](O)[C@@H](O)CO)[C@H](O)C[S+]2C[C@@H](O)[C@H](O)[C@H]2CO)cc1` (some centres undefined), the IC50 in test [1] was 32.4 µM; in test [2] it was 4.2 µM.

As usually defined, the Ki is a measure of affinity in units of concentration, obtained from inhibition or displacement. A low value points to tighter binding. With `O=[N+]([O-])c1ccccc1CO[C@H]([C@H](O)[C@@H](O)CO)[C@H](O)C[S+]1C[C@@H](O)[C@H](O)[C@H]1CO.[Cl-]` (some centres undefined), the IC50 in test [1] was 3.5 µM; in test [2], 0.32 µM; in test [3], > 500 µM. In addition, the values for the Ki in test [4] and in test [5] were 0.6 mg/L and 0.185 µM, respectively.

For `OC[C@@H]1[C@@H](O)[C@H](O)C[S+]1C[C@@H](O)[C@H](OCc1ccccc1)[C@H](O)[C@@H](O)CO` (some centres undefined), the figures for the IC50 in test [1] and in test [2] were 5.3 µM and 1.9 µM, respectively.

On to `OC[C@@H]1[C@@H](O)[C@H](O)C[S+]1C[C@@H](O)[C@H](OCc1ccccc1C(F)(F)F)[C@H](O)[C@@H](O)CO.[Cl-]` (some centres undefined), for which the figures for the IC50 in test [1], in test [2] and in test [3] were 2.5 µM, 0.2 µM and > 500 µM, respectively. Further, the Ki in test [4] is 0.28 mg/L; in test [5], 0.216 µM. Also, the Ratio IC50 in test [6] was 10.

On to `CCO[C@H]([C@H](O)[C@@H](O)CO)[C@H](O)C[S+]1C[C@@H](O)[C@H](O)[C@H]1CO` (some centres undefined), for which the IC50 was 9.5 µM in test [1] and 0.27 µM in test [2].

`OC[C@@H]1[C@@H](O)[C@H](O)C[S+]1C[C@@H](O)[C@H](OCc1ccc(Cl)cc1)[C@H](O)[C@@H](O)CO` (some centres undefined): the IC50 came to 18.3 µM in test [1] and 5.6 µM in test [2].

Consider `OC[C@@H]1[C@@H](O)[C@H](O)C[S+]1C[C@@H](O)[C@H](OCc1ccc(C(F)(F)F)cc1)[C@H](O)[C@@H](O)CO.[Cl-]` (some centres undefined), for which the IC50 in test [1] is 10 µM; in test [2], 4.6 µM. The Ki in test [4] is 0.74 mg/L; in test [5] it was 0.786 µM.

In the case of `OCC(CO)N[C@H]1C[C@](O)(CO)[C@@H](O)[C@H](O)[C@H]1O` [VOGLIBOSE], the IC50 in test [2] was 0.3 µM.

As for `OC[C@@H]1[C@@H](O)[C@H](O)C[S+]1C[C@@H](O)[C@H](OCc1ccccc1Cl)[C@H](O)[C@@H](O)CO.[Cl-]` (some centres undefined), the results for the IC50 in test [1], in test [2] and in test [3] were 8.2 µM, 0.7 µM and > 500 µM, respectively. The Ki in test [4] was 0.45 mg/L; in test [5], 0.21 µM.

Turning to `OC[C@@H]1[C@@H](O)[C@H](O)C[S+]1C[C@@H](O)[C@H](OCc1cccc(Cl)c1)[C@H](O)[C@@H](O)CO` (some centres undefined), the IC50 was found to be 5.2 µM in test [1] and 0.51 µM in test [2].

For the molecule `OC[C@@H]1[C@@H](O)[C@H](O)C[S+]1C[C@@H](O)[C@H](OCc1cccc(C(F)(F)F)c1)[C@H](O)[C@@H](O)CO.[Cl-]` (some centres undefined), the values for the IC50 in test [1] and in test [2] were 9.6 µM and 0.45 µM, respectively. The Ki in test [4] was 0.66 mg/L; in test [5], 0.354 µM.
